Assay results from ChEMBL document CHEMBL1201862, “PubChem BioAssay data set” (2004).
One block for each molecule: values may come before it. Activity calls are given as the source filed them.

Key:
[1] = molecular target: G-protein coupled receptor 35 (Homo sapiens, UniProt Q9HC97); assay: GPR35 antagonists blocking zaprinast-driven arrestin recruitment, primary screen, imaging, U2OS, beta-arrestin-GFP, zaprinast agonist (AID 2058); assay type: functional;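 also: antagonist potency meaning inhibition of agonist-induced arrestin redistribution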
[2] = molecular target: T1, Microphthalmia-associated transcription factor (Homo sapiens, UniProt O75030); assay: TRPM1 promoter luciferase signal decrease, dose response, MITF inhibitor project, cell-based, SK-MEL-5, cherry-picked, set 3 (AID 493073); assay type: functional
T1 sequence (O75030 whole entry): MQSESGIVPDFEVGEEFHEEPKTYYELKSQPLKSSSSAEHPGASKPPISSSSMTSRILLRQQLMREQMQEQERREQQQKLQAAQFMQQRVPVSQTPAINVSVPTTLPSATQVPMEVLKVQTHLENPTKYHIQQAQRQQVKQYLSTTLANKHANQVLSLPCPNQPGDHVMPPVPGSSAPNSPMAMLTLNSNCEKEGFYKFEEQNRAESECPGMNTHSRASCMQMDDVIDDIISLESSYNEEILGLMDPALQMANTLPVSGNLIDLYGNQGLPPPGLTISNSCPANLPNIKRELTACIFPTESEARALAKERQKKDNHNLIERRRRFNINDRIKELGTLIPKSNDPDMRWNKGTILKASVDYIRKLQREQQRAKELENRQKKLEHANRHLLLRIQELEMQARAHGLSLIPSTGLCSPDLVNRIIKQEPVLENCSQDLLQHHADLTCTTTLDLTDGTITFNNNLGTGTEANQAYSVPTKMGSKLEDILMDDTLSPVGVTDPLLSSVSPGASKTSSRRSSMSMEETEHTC

[3] = molecular target: T2, DNA repair protein RAD52 homolog (Homo sapiens, UniProt P43351); assay type: functional, biochemical
T2 sequence (P43351 whole entry): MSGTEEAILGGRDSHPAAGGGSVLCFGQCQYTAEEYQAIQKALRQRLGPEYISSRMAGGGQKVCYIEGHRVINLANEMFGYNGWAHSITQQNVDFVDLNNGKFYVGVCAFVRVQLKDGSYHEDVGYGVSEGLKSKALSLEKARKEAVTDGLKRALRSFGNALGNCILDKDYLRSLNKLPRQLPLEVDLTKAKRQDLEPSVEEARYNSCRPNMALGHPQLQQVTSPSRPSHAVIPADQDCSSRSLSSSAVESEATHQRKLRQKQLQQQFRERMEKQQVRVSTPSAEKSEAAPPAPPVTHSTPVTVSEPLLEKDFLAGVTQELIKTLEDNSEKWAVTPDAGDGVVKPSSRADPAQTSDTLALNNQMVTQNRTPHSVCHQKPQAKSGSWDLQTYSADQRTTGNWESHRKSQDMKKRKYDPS

[4] = molecular target: Acyl-homoserine lactone acylase PvdQ (Pseudomonas aeruginosa (strain LESB58), UniProt Q9I194); assay: P. aeruginosa PvdQ acylase inhibitors, dose response, biochemical, fluorescence, plate reader and imaging, cherry-picks (AID 493231)
Cytochrome P450 2D6 = Cytochrome P450 2D6 (Homo sapiens, UniProt P10635); assay: qHTS Assay for Inhibitors and Substrates of Cytochrome P450 2D6. [Related pubchem assays: 410 ]; assay type: ADME; details: read-out: Potency
[5] = molecular target: Voltage-gated N-type calcium channel alpha-1B subunit/Amyloid beta A4 precursor protein-binding family A member 1 (Homo sapiens, UniProt Q00975+Q02410); assay: disruptors of Mint-PDZ/N-type channel peptide interaction – biochemical, HTRF, set 2, SAR follow-up (AID 434980); assay type: functional
[6] = molecular target: Melanin-concentrating hormone receptor 1 (Homo sapiens, UniProt Q99705); assay: Late-stage fluorescence-based counterscreen for antagonists of the G-protein coupled receptor 7 (GPR7): cell-based dose response assay to identify antagonists of the melanin-concentrating hormone receptor 1 (MCHR1). [Related pubchem assays (depositor defined):AID1861, AID1880, AID1952, AID2148, AID2251, AID2257, AID485339]; assay type: functional;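 also: stimulated with 30 nM MCH peptide agonist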
[7] = molecular target: Heat shock cognate 71 kDa protein (Homo sapiens, UniProt P11142); assay: In Vitro Hsc70 Dose Response Fluorescence Polarization Assay. [Related pubchem assays: 1072 ]
[8] = molecular target: Heat shock 70 kDa protein 1A (Homo sapiens, UniProt P0DMV8); assay: Hsp70 inhibitors, SAR follow-up, biochemical, fluorescence polarization (AID 1072)
Staphylococcus aureus = assay: Inhibitors of Bacterial Quorum Sensing Structure Activity Relationship (SAR) Analysis: Dose Response Assay. [Related pubchem assays: 700, 527 ]; assay type: functional, organism-based
Genome polyprotein = Genome polyprotein (dengue virus type 2, UniProt P29990); assay: Dengue-2 NS5 methyltransferase inhibitors, primary screen, biochemical, confirmation dose response (AID 588689); assay type: functional
Sequence of Genome polyprotein (P29990 2492-3391 limits assumed): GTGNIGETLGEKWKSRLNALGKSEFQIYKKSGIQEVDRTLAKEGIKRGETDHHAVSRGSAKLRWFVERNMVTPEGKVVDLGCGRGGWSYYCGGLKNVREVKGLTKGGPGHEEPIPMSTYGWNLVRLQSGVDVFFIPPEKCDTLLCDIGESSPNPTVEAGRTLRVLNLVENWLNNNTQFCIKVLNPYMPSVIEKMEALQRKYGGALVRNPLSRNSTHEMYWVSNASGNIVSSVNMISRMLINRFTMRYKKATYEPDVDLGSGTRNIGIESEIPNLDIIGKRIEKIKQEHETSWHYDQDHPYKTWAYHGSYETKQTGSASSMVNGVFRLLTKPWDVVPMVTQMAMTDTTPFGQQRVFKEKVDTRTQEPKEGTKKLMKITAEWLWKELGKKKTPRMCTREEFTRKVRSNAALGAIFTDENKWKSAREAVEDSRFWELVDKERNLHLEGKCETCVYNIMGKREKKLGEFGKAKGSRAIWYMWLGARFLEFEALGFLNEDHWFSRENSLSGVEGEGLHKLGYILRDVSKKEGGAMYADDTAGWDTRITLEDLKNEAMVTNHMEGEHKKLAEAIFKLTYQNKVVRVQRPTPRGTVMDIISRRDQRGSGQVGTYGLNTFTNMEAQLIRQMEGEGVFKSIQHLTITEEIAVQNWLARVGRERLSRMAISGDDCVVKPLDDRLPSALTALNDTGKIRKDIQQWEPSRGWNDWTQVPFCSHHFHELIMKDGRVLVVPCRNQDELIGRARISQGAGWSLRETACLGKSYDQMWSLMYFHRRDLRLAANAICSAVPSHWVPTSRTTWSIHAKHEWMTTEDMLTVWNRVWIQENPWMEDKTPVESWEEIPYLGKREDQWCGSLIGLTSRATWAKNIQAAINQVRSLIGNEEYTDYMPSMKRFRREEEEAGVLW

Sequence of Melanin-concentrating hormone receptor 1 (Q99705 whole entry): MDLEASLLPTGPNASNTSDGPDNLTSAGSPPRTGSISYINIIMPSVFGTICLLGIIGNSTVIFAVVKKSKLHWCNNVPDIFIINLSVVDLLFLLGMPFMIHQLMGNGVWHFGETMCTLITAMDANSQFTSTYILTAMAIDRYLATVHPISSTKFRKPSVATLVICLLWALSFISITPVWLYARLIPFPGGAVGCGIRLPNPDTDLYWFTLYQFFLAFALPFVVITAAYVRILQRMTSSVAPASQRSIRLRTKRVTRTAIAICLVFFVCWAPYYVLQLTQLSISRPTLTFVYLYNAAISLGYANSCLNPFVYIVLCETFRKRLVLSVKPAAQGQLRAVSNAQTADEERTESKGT
Sequence of Heat shock 70 kDa protein 1A (P0DMV8 whole entry): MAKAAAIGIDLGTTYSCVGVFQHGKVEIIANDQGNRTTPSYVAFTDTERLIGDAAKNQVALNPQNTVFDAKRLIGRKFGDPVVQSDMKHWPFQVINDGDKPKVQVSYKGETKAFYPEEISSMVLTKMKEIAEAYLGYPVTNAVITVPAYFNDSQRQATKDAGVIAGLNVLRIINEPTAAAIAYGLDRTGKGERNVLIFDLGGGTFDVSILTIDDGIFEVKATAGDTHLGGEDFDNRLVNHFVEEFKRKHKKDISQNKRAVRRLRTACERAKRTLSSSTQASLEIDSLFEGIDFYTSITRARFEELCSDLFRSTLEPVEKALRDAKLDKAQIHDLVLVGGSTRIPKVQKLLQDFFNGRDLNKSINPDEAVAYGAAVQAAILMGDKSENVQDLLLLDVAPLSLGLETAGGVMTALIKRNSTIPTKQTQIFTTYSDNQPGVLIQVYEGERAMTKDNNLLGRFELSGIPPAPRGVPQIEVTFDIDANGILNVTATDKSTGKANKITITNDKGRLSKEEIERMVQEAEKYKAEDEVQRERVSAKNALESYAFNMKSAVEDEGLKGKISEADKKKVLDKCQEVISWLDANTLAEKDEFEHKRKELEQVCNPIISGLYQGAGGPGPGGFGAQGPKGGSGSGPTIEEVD
Sequence of Acyl-homoserine lactone acylase PvdQ (Q9I194 24-193 limits assumed): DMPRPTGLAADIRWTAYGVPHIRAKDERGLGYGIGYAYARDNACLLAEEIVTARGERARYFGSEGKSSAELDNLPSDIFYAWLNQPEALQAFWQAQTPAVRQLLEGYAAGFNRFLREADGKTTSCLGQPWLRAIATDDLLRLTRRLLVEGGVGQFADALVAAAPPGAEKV
Sequence of Acyl-homoserine lactone acylase PvdQ (Q9I194 217-762 limits assumed): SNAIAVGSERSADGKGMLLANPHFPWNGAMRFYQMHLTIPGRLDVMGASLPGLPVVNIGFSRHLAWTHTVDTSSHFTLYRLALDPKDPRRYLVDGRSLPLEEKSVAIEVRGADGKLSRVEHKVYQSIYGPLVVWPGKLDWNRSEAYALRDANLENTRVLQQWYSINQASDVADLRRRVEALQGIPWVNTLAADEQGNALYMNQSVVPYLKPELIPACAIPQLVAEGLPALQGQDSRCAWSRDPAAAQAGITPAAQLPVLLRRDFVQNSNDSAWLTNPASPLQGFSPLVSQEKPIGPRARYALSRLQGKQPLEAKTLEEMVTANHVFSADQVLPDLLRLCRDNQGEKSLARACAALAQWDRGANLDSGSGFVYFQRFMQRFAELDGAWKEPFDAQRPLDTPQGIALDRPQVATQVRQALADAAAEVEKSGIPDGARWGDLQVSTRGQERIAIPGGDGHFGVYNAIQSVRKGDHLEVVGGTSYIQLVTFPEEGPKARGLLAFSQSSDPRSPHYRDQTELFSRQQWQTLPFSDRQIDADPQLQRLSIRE
Sequence of G-protein coupled receptor 35 (Q9HC97 whole entry): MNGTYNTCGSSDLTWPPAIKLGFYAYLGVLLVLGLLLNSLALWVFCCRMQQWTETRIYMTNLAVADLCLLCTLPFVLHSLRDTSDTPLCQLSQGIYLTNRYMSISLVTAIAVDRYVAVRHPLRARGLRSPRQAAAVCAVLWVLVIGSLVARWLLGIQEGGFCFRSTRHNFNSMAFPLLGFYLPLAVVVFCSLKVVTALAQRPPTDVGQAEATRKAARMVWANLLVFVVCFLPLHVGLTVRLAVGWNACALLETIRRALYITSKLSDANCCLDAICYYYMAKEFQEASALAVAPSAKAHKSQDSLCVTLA
Sequence of Heat shock cognate 71 kDa protein (P11142 whole entry): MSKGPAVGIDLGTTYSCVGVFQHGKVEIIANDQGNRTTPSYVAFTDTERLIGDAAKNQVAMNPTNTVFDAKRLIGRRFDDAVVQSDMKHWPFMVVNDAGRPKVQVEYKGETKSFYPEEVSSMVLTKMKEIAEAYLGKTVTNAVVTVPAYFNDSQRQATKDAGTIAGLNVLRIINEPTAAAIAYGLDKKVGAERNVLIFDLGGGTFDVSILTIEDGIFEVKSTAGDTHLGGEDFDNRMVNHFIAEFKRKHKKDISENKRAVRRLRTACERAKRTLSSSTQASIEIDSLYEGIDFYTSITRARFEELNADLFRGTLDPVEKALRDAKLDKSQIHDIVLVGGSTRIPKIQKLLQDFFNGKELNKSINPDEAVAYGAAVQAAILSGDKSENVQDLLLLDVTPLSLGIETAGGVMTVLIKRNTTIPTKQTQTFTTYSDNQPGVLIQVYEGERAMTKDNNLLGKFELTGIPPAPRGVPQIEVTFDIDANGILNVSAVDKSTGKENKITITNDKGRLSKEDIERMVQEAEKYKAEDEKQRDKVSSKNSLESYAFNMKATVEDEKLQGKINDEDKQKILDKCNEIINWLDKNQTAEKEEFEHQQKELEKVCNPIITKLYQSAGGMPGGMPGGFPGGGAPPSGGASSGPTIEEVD
Sequence of Cytochrome P450 2D6 (P10635 whole entry): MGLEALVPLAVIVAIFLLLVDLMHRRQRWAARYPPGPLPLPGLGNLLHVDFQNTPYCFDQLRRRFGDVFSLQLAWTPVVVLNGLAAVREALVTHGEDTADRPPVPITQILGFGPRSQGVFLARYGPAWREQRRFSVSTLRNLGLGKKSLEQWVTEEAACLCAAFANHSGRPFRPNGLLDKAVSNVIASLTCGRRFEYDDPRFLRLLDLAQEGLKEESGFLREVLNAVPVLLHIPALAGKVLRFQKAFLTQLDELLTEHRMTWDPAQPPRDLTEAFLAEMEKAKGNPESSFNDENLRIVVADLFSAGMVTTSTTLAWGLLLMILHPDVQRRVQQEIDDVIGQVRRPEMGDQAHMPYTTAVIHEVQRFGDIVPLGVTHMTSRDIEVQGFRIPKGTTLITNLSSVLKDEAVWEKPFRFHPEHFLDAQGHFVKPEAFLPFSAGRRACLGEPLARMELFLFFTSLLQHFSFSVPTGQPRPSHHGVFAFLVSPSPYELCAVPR

Compound: CC1SCC(NC(=O)c2cccc(Cl)c2)CS1 (stereo unspecified)
AC50 [4]: > 100 µM (inactive)

Compound: COc1ccc(Oc2c(Br)cnn(-c3ccc(C(C)C)cc3)c2=O)cc1
IC50 [6]: 0.72 µM (active)

Compound: O=C(O)C1CCCCC1c1c2ccc(=O)c(O)c-2oc2c(O)c(O)ccc12 (stereo unspecified)
IC50 [7]: 42.4 µM (active) | IC50 [8]: 9.85 µM (active)

Compound: CC(C)c1ccc(S(=O)(=O)c2nnn3c2nc(O)c2ccccc23)cc1 [SAVIRIN]
IC50 (Staphylococcus aureus): 0.25 µM (active) | IC50 (Genome polyprotein): 51.5 µM (active)

Now from value to molecule:

IC50 [1]: > 32 µM (inactive) | AC50 [2]: 7.51 µM (active) | AC50 [3]: 15.6 µM (active)
Compound: CN(C)CCCNC(=O)/C(=C\c1ccc(-c2ccc(Br)cc2)o1)NC(=O)c1ccccc1

AC50 (Cytochrome P450 2D6): 15.8 µM (inconclusive)
Compound: COc1ccc2c(=O)cc(-c3ccc(O)cc3)oc2c1

IC50 [5]: > 56.8 µM (inactive)
Compound: O=C(Nc1ncc(-c2ccccc2)o1)c1cc(-c2ccco2)nc2ccccc12
